Common to all, as to type: functional
The test system of one assay is Trichophyton rubrum. In words: Antifungal activity against Trichophyton rubrum.
The test system of another assay is Candida. In words: Antifungal activity against Candida spp.
A further assay has as its system Microsporum. Kind of assay: Antifungal activity against Microsporum […].
In assay [1] the test system is Aspergillus fumigatus. In words: Antifungal activity against Aspergillus fumigatus.
The test system of another assay is Cryptococcus neoformans. Kind of assay: Antifungal activity against Cryptococcus neoformans.
The subject of another assay is Candida tropicalis. In words: Antifungal activity against Candida tropicalis.
The test system of assay [2] is Candida parapsilosis. In words: Antifungal activity against Candida parapsilosis. The conditions noted are these: Lodderomyces parapsilosis.
The test system of assay [3] is Candida parapsilosis. In words: Antifungal activity against Candida parapsilosis ATCC 22019. As to conditions: Lodderomyces parapsilosis.
In the next assay the test system is Sporothrix schenckii. In words: Antifungal activity against Sporothrix schenckii.
The test system of assay [4] is Candida albicans. In words: Antifungal activity against Candida albicans. As to conditions: Candida albicans.
Another assay has as its system Microsporum canis. Kind of assay: Antifungal activity against Microsporum canis.
Assay [5] can be described thus: Antifungal activity against Fonsecaea compacta.
The next assay relates to Trichophyton tonsurans. In words: Antifungal activity against Trichophyton tonsurans.
Assay [6] deals with Aspergillus fumigatus. In words: Antifungal activity against Aspergillus fumigatus AF980003.
For assay [7], the system named is Aspergillus fumigatus. In words: Ratio of compound MIC to itraconazole MIC for Aspergillus fumigatus AF980003.
Assay [8] has as its system Candida albicans. Kind of assay: Ratio of compound MIC to itraconazole MIC for Candida albicans CA980001.
Assay [9] deals with Candida albicans. In words: Antifungal activity against Candida albicans CA980001.
For assay [10], the system named is Mycobacterium tuberculosis. In words: Antibacterial activity against Mycobacterium tuberculosis.
In another assay the test system is Staphylococcus aureus. In words: Antibacterial activity against Staphylococcus aureus.
Assay [11] deals with Trichophyton mentagrophytes. In words: Antifungal activity against Trichophyton mentagrophytes.
The test system of the next assay is Aspergillus flavus. Kind of assay: Antifungal activity against Aspergillus flavus.
For another assay, the system named is Pichia kudriavzevii. In words: Antifungal activity against Candida krusei.
The subject of a further assay is Aspergillus niger. Kind of assay: Antifungal activity against Aspergillus niger. As to conditions: for MIC: Aspergillus niger.
The subject of another assay is Fusarium oxysporum. In words: Antifungal activity against Fusarium oxysporum. The conditions noted are these: Fusarium oxysporum.
Another assay concerns Macrophomina phaseolina. Kind of assay: Antifungal activity against Macrophomina phaseolina.

In brackets after ≈: the same amount, converted by molar mass.

As a reminder, the MIC is the smallest concentration in the dilution series that meets the test's criterion for growth inhibition.

`Clc1ccc(CN(Cc2ccc(-c3ccccc3)cc2)n2ccnc2)c(Cl)c1` gave an MIC against Trichophyton rubrum of 0.8 µg/mL (≈ 1.96 µM).
For the molecule `CC1=NN(c2ccccc2)C(=O)C12C(C#N)C2(c1ccccc1)c1ccccc1` (centres undefined), the MIC with Candida was found to be 25 µg/mL (≈ 66.2 µM).
Take `NC(=O)c1ccc(COc2ccc(N3CCN(CC(O)(Cn4cncn4)c4ccccc4)CC3)cc2)cc1` (centres undefined): the minimal inhibitory concentration (MIC) with Trichophyton rubrum, with Microsporum, against Aspergillus fumigatus [1], against Cryptococcus neoformans, in the assay on Candida tropicalis and with Candida parapsilosis [2] was 0.0625 µg/mL (≈ 0.122 µM) throughout.
`CC1=NN(c2ccccc2)C(=O)C12C(C(=O)OC(C)C)C2(c1ccccc1)c1ccccc1` (centres undefined) came in with an MIC against Candida of 25 µg/mL (≈ 57 µM).
Take `C[C@H](CCCN1C=NN(CC(O)(Cn2cncn2)c2ccc(F)cc2F)C1)[C@H]1CC[C@H]2[C@@H]3[C@H](O)C[C@@H]4CCCC[C@]4(C)[C@H]3CC[C@]12C` (some centres undefined): the minimal inhibitory concentration (MIC) against Candida parapsilosis [3], in the assay with Sporothrix schenckii and with Candida albicans [4] was 2.18 µg/mL (≈ 3.34 µM) in each case.
The molecule `CC1=NN(c2ccccc2)C(=O)C12C(C)(C(=O)OC(C)(C)C)C2(c1ccccc1)c1ccccc1` (centres undefined) showed a minimum inhibitory concentration (MIC) against Candida of 25 µg/mL (≈ 53.6 µM).
Consider `N#Cc1ccc(N(CC(O)(Cn2cncn2)c2ccc(F)cc2F)C2CC2)cc1` (centres undefined), for which the MIC against Microsporum canis, against Trichophyton rubrum, in the assay with Aspergillus fumigatus [1], in the assay on Cryptococcus neoformans, in the assay on Candida tropicalis and against Candida parapsilosis [2] was 0.125 µg/mL (≈ 0.316 µM) each time. For the same molecule, the MIC (in the assay with Candida albicans [4]; in assay [5]) was 0.125 µg/mL (≈ 0.316 µM) in each case.
In the case of `CCN(CC)C(=O)C1C2(C(=O)N(c3ccccc3)N=C2C)C1(c1ccccc1)c1ccccc1` (centres undefined), 25 µg/mL (≈ 55.4 µM) was the least that counted as inhibitory against Candida (MIC).
As to `CN(CC(O)(Cn1cncn1)c1ccc(F)cc1F)C1CC1` (centres undefined), the MIC against Microsporum canis, with Trichophyton rubrum, in the assay with Aspergillus fumigatus [1], against Cryptococcus neoformans, against Candida tropicalis and against Candida parapsilosis [2] was 0.125 µg/mL (≈ 0.405 µM) each time. The MIC (against Candida albicans [4]; in [5]) was 0.125 µg/mL (≈ 0.405 µM) in each case.
For the molecule `CC1=NN(c2ccccc2)C(=O)C12C(C)(C#N)C2(c1ccccc1)c1ccccc1` (centres undefined), it took 25 µg/mL (≈ 63.9 µM) to inhibit growth against Candida (MIC).
On to `Clc1ccc(COC(Cn2ccnc2)c2ccc(Cl)cc2Cl)c(Cl)c1` (centres undefined) [MICONAZOLE], for which the values for the MIC against Trichophyton rubrum, with Candida and against Trichophyton tonsurans were 0.4 µg/mL (≈ 0.961 µM), 2 µg/mL (≈ 4.81 µM) and 0.2 µg/mL (≈ 0.481 µM), respectively.
For `Clc1ccccc1Cn1cc(Cn2ccnc2)c2cc(Br)ccc21`, the MIC against Aspergillus fumigatus [6] and against Candida albicans [9] was 8 µg/mL (≈ 20 µM) each time. Besides, the Ratio in the assay with Aspergillus fumigatus [7] and in the assay with Candida albicans [8] was 16 throughout.
In the assay on Candida, `COC(=O)C1C2(C(=O)N(c3ccccc3)N=C2C)C1(c1ccccc1)c1ccccc1` (centres undefined) gave a minimal inhibitory concentration (MIC) of 25 µg/mL (≈ 60.9 µM).
Same read-out and setting: next, `CCN(CC)C(=O)C1(C)C2(C(=O)N(c3ccccc3)N=C2C)C1(c1ccccc1)c1ccccc1` (centres undefined): 25 µg/mL (≈ 53.7 µM).
On to `Cc1cccc(C2=NN(C(N)=S)C(c3cccnc3)C2)c1` (centres undefined), for which the MIC in assay [10] amounted to 6.25 µg/mL (≈ 21.1 µM); in the assay on Staphylococcus aureus, 128 µg/mL (≈ 432 µM).
In turn, `CC1=NN(c2ccccc2)C(=O)C12C(C)(C(=O)OC(C)C)C2(c1ccccc1)c1ccccc1` (centres undefined) registered a minimum inhibitory concentration (MIC) in the assay on Candida of 25 µg/mL (≈ 55.2 µM).
As for `COC(=O)C1(C)C2(C(=O)N(c3ccccc3)N=C2C)C1(c1ccccc1)c1ccccc1` (centres undefined), in the assay on Candida, the lowest concentration to inhibit growth (MIC) was 25 µg/mL (≈ 58.9 µM).
Regarding `CCOC(=O)C1C2(C(=O)N(c3ccccc3)N=C2C)C1(c1ccccc1)c1ccccc1` (centres undefined), in the assay with Candida, 25 µg/mL (≈ 58.9 µM) was the least that counted as inhibitory (MIC).
`Cc1ncc([N+](=O)[O-])n1CC(O)CCl` (centres undefined) [ORNIDAZOLE] had a minimal inhibitory concentration (MIC) with Trichophyton tonsurans of 0.8 µg/mL (≈ 3.64 µM).
On to `O=C1C(CO)=C(Sc2ccccc2)C(=O)c2ccccc21`, for which the MIC (with Microsporum canis; in the assay with Aspergillus fumigatus [1]; against Cryptococcus neoformans; in [11]; with Sporothrix schenckii; in the assay with Candida albicans [4]) was 0.78 µg/mL (≈ 2.63 µM) throughout.
Regarding `Nc1nc(=O)[nH]cc1F` [FLUCYTOSINE], the minimal inhibitory concentration (MIC) against Aspergillus flavus (Aspergillus flavus), in the assay with Pichia kudriavzevii, in the assay with Aspergillus niger, in the assay on Candida tropicalis and against Candida albicans [4] was 12.5 µg/mL (≈ 96.8 µM) throughout.
In turn, `CCCn1cc(-c2ccc(Cl)cc2)c(C(c2ccccc2)n2ccnc2)c1` (centres undefined) had a minimum inhibitory concentration (MIC) against Candida albicans [4] of 0.016 µg/mL (≈ 0.0426 µM).
In the assay with Cryptococcus neoformans, `C[C@@H]1[C@H](O)[C@@H](C)/C=C/C=C/C=C/C=C/C=C/C=C/C=C/[C@H](O[C@@H]2O[C@H](C)[C@@H](O)[C@H](N)[C@@H]2O)C[C@@H]2O[C@](O)(C[C@@H](O)C[C@@H](O)[C@H](O)CC[C@@H](O)C[C@@H](O)CC(=O)O[C@H]1C)C[C@H](O)[C@H]2C(=O)O` [AMPHOTERICIN B] yielded an MIC of 0.13 µg/mL (≈ 0.141 µM).
`N#Cc1c(Cl)c(Cl)c(Cl)c(C#N)c1Cl` [CHLOROTHALONIL]: the minimum inhibitory concentration (MIC) against Fusarium oxysporum, against Macrophomina phaseolina and against Aspergillus niger was 52 µg/mL (≈ 196 µM) in each case.
In the case of `O=C(Nc1ccccc1-c1nnc(-c2ccc(O)cc2)o1)c1ccccc1`, the “inhibition zone (IZ)” value with Aspergillus flavus was 11 mm; in the assay with Aspergillus niger, 15 mm.

These data come from ChEMBL document CHEMBL2169787, “The biology and chemistry of antifungal agents: a review” (2012).
